Experimental data published in ChEMBL document CHEMBL1149623, “Identification of antibacterial and antiviral activities of novel fused 1,2,4-triazine esters” (2007).

Columns and labels:
[1] = test system: HEK293; assay: Cytotoxicity against human HEK293 cells at 5 ug/mL after 96 hrs by MTT assay; assay type: functional
[2] = test system: HEK293; assay: Cytotoxicity against human HEK293 cells at 100 ug/mL after 96 hrs by MTT assay; assay type: functional
[3] = test system: HEK293; assay: Cytotoxicity against human HEK293 cells at 5 ug/mL after 24 hrs by MTT assay; assay type: functional
[4] = test system: HEK293; assay: Cytotoxicity against human HEK293 cells at 10 ug/mL after 48 hrs by MTT assay; assay type: functional
[5] = Cytotoxicity against monkey GMK cells at 50 ug/mL after 72 hrs by MTT assay; assay type: functional, Chlorocebus aethiops
[6] = test system: Echovirus E9; assay: Antiviral activity against Human echovirus 9 in GMK cells assessed as virus titre at 200 ug/mL after 1 hr; assay type: functional
[7] = test system: HEK293; assay: Cytotoxicity against human HEK293 cells at 100 ug/mL after 120 hrs by MTT assay; assay type: functional
[8] = Cytotoxicity against monkey GMK cells at 50 ug/mL after 120 hrs by MTT assay; assay type: functional, Chlorocebus aethiops
[9] = test system: Human adenovirus 5; assay: Antiviral activity against Human adenovirus 5 in HEK293 cells assessed as virus titre at 200 ug/mL after 1 hr; assay type: functional
[10] = test system: HEK293; assay: Cytotoxicity against human HEK293 cells at 100 ug/mL after 48 hrs by MTT assay; assay type: functional
[11] = test system: HEK293; assay: Cytotoxicity against human HEK293 cells at 200 ug/mL after 24 hrs by MTT assay; assay type: functional
[12] = Cytotoxicity against monkey GMK cells at 100 ug/mL after 48 hrs by MTT assay; assay type: functional, Chlorocebus aethiops
[13] = Cytotoxicity against monkey GMK cells at 50 ug/mL after 24 hrs by MTT assay; assay type: functional, Chlorocebus aethiops
[14] = Cytotoxicity against monkey GMK cells at 10 ug/mL after 48 hrs by MTT assay; assay type: functional, Chlorocebus aethiops
[15] = Cytotoxicity against monkey GMK cells at 25 ug/mL after 72 hrs by MTT assay; assay type: functional, Chlorocebus aethiops
[16] = test system: HEK293; assay: Cytotoxicity against human HEK293 cells at 200 ug/mL after 72 hrs by MTT assay; assay type: functional
[17] = Cytotoxicity against monkey GMK cells at 50 ug/mL after 48 hrs by MTT assay; assay type: functional, Chlorocebus aethiops
[18] = test system: HEK293; assay: Cytotoxicity against human HEK293 cells at 200 ug/mL after 96 hrs by MTT assay; assay type: functional
[19] = Cytotoxicity against monkey GMK cells at 5 ug/mL after 72 hrs by MTT assay; assay type: functional, Chlorocebus aethiops
[20] = Cytotoxicity against monkey GMK cells at 200 ug/mL after 72 hrs by MTT assay; assay type: functional, Chlorocebus aethiops
[21] = Cytotoxicity against monkey GMK cells at 25 ug/mL after 120 hrs by MTT assay; assay type: functional, Chlorocebus aethiops
[22] = test system: HEK293; assay: Cytotoxicity against human HEK293 cells at 50 ug/mL after 48 hrs by MTT assay; assay type: functional
[23] = test system: HEK293; assay: Cytotoxicity against human HEK293 cells at 10 ug/mL after 96 hrs by MTT assay; assay type: functional
[24] = Cytotoxicity against monkey GMK cells at 10 ug/mL after 96 hrs by MTT assay; assay type: functional, Chlorocebus aethiops
[25] = Cytotoxicity against monkey GMK cells at 100 ug/mL after 72 hrs by MTT assay; assay type: functional, Chlorocebus aethiops
[26] = test system: HEK293; assay: Cytotoxicity against human HEK293 cells at 5 ug/mL after 72 hrs by MTT assay; assay type: functional
[27] = Cytotoxicity against monkey GMK cells at 2.5 ug/mL after 24 hrs by MTT assay; assay type: functional, Chlorocebus aethiops
[28] = test system: HEK293; assay: Cytotoxicity against human HEK293 cells at 100 ug/mL after 72 hrs by MTT assay; assay type: functional
[29] = test system: HEK293; assay: Cytotoxicity against human HEK293 cells at 25 ug/mL after 96 hrs by MTT assay; assay type: functional
[30] = Cytotoxicity against monkey GMK cells at 25 ug/mL after 24 hrs by MTT assay; assay type: functional, Chlorocebus aethiops
[31] = Cytotoxicity against monkey GMK cells at 100 ug/mL after 24 hrs by MTT assay; assay type: functional, Chlorocebus aethiops
[32] = Cytotoxicity against monkey GMK cells at 10 ug/mL after 120 hrs by MTT assay; assay type: functional, Chlorocebus aethiops
[33] = Cytotoxicity against monkey GMK cells at 200 ug/mL after 24 hrs by MTT assay; assay type: functional, Chlorocebus aethiops
[34] = test system: HEK293; assay: Cytotoxicity against human HEK293 cells at 10 ug/mL after 120 hrs by MTT assay; assay type: functional
[35] = Cytotoxicity against monkey GMK cells at 5 ug/mL after 96 hrs by MTT assay; assay type: functional, Chlorocebus aethiops
[36] = test system: HEK293; assay: Cytotoxicity against human HEK293 cells at 25 ug/mL after 72 hrs by MTT assay; assay type: functional
[37] = Cytotoxicity against monkey GMK cells at 2.5 ug/mL after 48 hrs by MTT assay; assay type: functional, Chlorocebus aethiops
[38] = Cytotoxicity against monkey GMK cells at 2.5 ug/mL after 72 hrs by MTT assay; assay type: functional, Chlorocebus aethiops
[39] = Cytotoxicity against monkey GMK cells at 2.5 ug/mL after 120 hrs by MTT assay; assay type: functional, Chlorocebus aethiops
[40] = Cytotoxicity against monkey GMK cells at 50 ug/mL after 96 hrs by MTT assay; assay type: functional, Chlorocebus aethiops
[41] = test system: HEK293; assay: Cytotoxicity against human HEK293 cells at 50 ug/mL after 96 hrs by MTT assay; assay type: functional
[42] = test system: HEK293; assay: Cytotoxicity against human HEK293 cells at 2.5 ug/mL after 120 hrs by MTT assay; assay type: functional
[43] = test system: HEK293; assay: Cytotoxicity against human HEK293 cells at 2.5 ug/mL after 24 hrs by MTT assay; assay type: functional
[44] = test system: HEK293; assay: Cytotoxicity against human HEK293 cells at 200 ug/mL after 48 hrs by MTT assay; assay type: functional
[45] = test system: HEK293; assay: Cytotoxicity against human HEK293 cells at 100 ug/mL after 24 hrs by MTT assay; assay type: functional
[46] = Cytotoxicity against monkey GMK cells at 25 ug/mL after 48 hrs by MTT assay; assay type: functional, Chlorocebus aethiops
[47] = test system: HEK293; assay: Cytotoxicity against human HEK293 cells at 2.5 ug/mL after 72 hrs by MTT assay; assay type: functional
[48] = test system: HEK293; assay: Cytotoxicity against human HEK293 cells at 10 ug/mL after 72 hrs by MTT assay; assay type: functional
[49] = Cytotoxicity against monkey GMK cells at 100 ug/mL after 120 hrs by MTT assay; assay type: functional, Chlorocebus aethiops
[50] = test system: HEK293; assay: Cytotoxicity against human HEK293 cells at 200 ug/mL after 120 hrs by MTT assay; assay type: functional
[51] = test system: HEK293; assay: Cytotoxicity against human HEK293 cells at 25 ug/mL after 120 hrs by MTT assay; assay type: functional
[52] = test system: Echovirus E9; assay: Antiviral activity against Human echovirus 9 in GMK cells assessed as virus titre at 50 ug/mL after 1 hr; assay type: functional
[53] = Cytotoxicity against monkey GMK cells at 100 ug/mL after 96 hrs by MTT assay; assay type: functional, Chlorocebus aethiops
[54] = test system: HEK293; assay: Cytotoxicity against human HEK293 cells at 25 ug/mL after 48 hrs by MTT assay; assay type: functional
[55] = Cytotoxicity against monkey GMK cells at 5 ug/mL after 24 hrs by MTT assay; assay type: functional, Chlorocebus aethiops
[56] = Cytotoxicity against monkey GMK cells at 200 ug/mL after 96 hrs by MTT assay; assay type: functional, Chlorocebus aethiops
[57] = Cytotoxicity against monkey GMK cells at 25 ug/mL after 96 hrs by MTT assay; assay type: functional, Chlorocebus aethiops

Question: What does the source list for `CCOC(=O)CC1NN=C2N(CCN2c2ccc(C)cc2)C1=O` (configuration not stated)?
Answer: Activity [1]: 100%; Activity [2]: 70%; Activity [3]: 100%; Activity [4]: 100%; Activity [5]: 80%; TCID50 [6]: 3.67 mL⁻¹; Activity [7]: 70%; Activity [8]: 70%; TCID50 [9]: 2.5 mL⁻¹; Activity [10]: 80%; Activity [11]: 30%; Activity [12]: 80%; Activity [13]: 90%; Activity [14]: 100%; Activity [15]: 85%; Activity [16]: 15%; Activity [17]: 80%; Activity [18]: 15%; Activity [19]: 100%; Activity [20]: 0%; Activity [21]: 70%; Activity [22]: 80%; Activity [23]: 100%; Activity [24]: 95%; Activity [25]: 70%; Activity [26]: 100%; Activity [27]: 100%; Activity [28]: 70%; Activity [29]: 95%; Activity [30]: 100%; Activity [31]: 90%; Activity [32]: 90%; Activity [33]: 0%; Activity [34]: 100%; Activity [35]: 100%; Activity [36]: 100%; Activity [37]: 100%; Activity [38]: 100%; Activity [39]: 100%; Activity [40]: 70%; Activity [41]: 70%; Activity [42]: 100%; Activity [43]: 100%; Activity [44]: 20%; Activity [45]: 70%; Activity [46]: 90%; Activity [47]: 100%; Activity [48]: 100%; Activity [49]: 70%; Activity [50]: 15%; Activity [51]: 95%; TCID50 [52]: 3.67 mL⁻¹; Activity [53]: 70%; Activity [54]: 100%; Activity [55]: 100%; Activity [56]: 0%; Activity [57]: 80%
